One substance from patent publication US9248163B2, “Insulin-like growth factor binding protein 7 for treatment of cancer” (University of Massachusetts, priority 2007, dated 2016) can be followed below.

In assay [1] the test system is SK-MEL-31 (wild type BRAF) tumors. Briefly: Tumor formation assay, SK-MEL-31 xenograft in nude mice. The format is in vivo, athymic Balb/c (nu/nu) mice. The procedure:
5×10^6 SK-MEL-28 or SK-MEL-31 cells were suspended in 100 μl of serum-free DMEM and injected subcutaneously into the right flank of athymic Balb/c (nu/nu) mice (Taconic). Three, six, and nine days later, the mice were injected at the tumor site with either 20 μg of rIGBP7 in a total volume of 100 μl or, as a control, PBS. Tumor dimensions were measured every three days and tumor volume was calculated using the formula π/6×(length)×(width)^2. For the systemic administration experiments, 5×10^6 SK-MEL-28 or SK-MEL-31 cells were injected into the flanks of nude mice and when tumors reached a size of 100 mm3, 100 μg rIGFBP7 in a total volume of 100 μl was delivered by tail vein injection at days 6, 9, and 12. Tumor dimensions were measured every three days. Animal experiments were performed in accordance with the Institutional Animal Care and Use Committee (IACUC) guidelines.

Assay [2] concerns BRAF-MEK-ERK signaling in SK-MEL-28 cells. The experiment in a line: Immunoblot analysis of BRAF-MEK-ERK signaling (phospho-ERK, activated MEK1/2, RKIP). The format is cell-based, human. On the procedure: To prepare cell extracts, cells were lysed in Laemmli buffer; for phospho-proteins, cells were lysed in the presence of a phosphatase inhibitor cocktail (Sigma). To prepare conditioned media, cells were grown in Opti-MEM™ (Invitrogen) for 24 hours, and media was harvested and concentrated using Centricon™ plus 20 tubes (Millipore). Conditioned media was normalized to cell number prior to loading the gel. For the experiments shown in FIGS. 3D and 4C, rIGFBP7 was added to the culture medium at a concentration of 10 μg/ml. For the MEK/RAF inhibitor experiment of FIG. 4D, SK-MEL-28 cells were treated with 2 μg/ml or 10 μg/ml rIGFBP7, 20 μM or 40 μM of the MEK inhibitor PD98054 (Calbiochem), or 5 nM or 10 nM the RAF inhibitor GW5074 (Sigma) for 24 hours prior to harvesting cells. Proteins were resolved by SDS-PAGE and transferred to nitrocellulose. Blots were probed with the following antibodies: α-p16 (Abcam), α-acetylated H3K9 (Upstate), α-IGFBP7 (Santa Cruz), α-SMARCB1 (Abnova), α-BNIP3L (Proscience), α-BRAFV600E (Santa Cruz), α-cleaved caspase-3 p11 (Santa Cruz), α-β-actin (Sigma), α-phospho-ERK (Cell Signaling) or α-ERK (Cell Signaling).
To test this idea, rIGFBP7 was added to BRAFV600E-positive SK-MEL-28 melanoma cells, and the levels of total and activated ERK (phospho-ERK) were analyzed.
(In general: Immunoblotting shows a protein as a band on a membrane.)

Consider “rIGFBP7: purified recombinant human IGFBP7, C-terminal Flag-tagged, from baculovirus-infected Sf9 insect cells”, for which the tumor growth result in assay [1] (injected at the tumor site, 20 μg, days 3, 6 and 9) was “no effect”. Also, the tumor growth result in assay [1] (systemic, 100 μg by tail vein injection at days 6, 9 and 12) was “unaffected”. In addition, the “growth factor-induced ERK activation” value in assay [2] is “blocked”. In addition, in assay [2] (SK-MEL-28 cells), the “RAF inhibitory protein (RKIP) expression” value was “upregulation” and the “levels of activated MEK1/2” value is recorded as “decreased levels”. In addition, the phospho-ERK level entry in assay [2] (SK-MEL-28 cells, 24 hours, 0.2-10 μg/ml) was “dose-dependent loss of phospho-ERK”.
